Results: publication PMC8617063 (Nature Communications, 2021)
Like-named read-outs stand apart in the source and are kept apart here. Ends that are not written are not given here.

Key:
tail bleeding = conditions: rat, in vivo; for RT50 for bleeding: iv
saphenous vein bleeding = conditions: rat, in vivo
ear vein bleeding = conditions: pig, in vivo
[1] = in vivo, cited from earlier work
thrombin = thrombin (Homo sapiens, UniProt P00734); assay: biochemical
α-thrombin [2] = target: α-thrombin (UniProt P00734); assay: enzyme inhibition (thrombin amidolytic activity on chromogenic substrate S2238); 0.83 nM thrombin, varying concentrations of peptide, 100 µM S2238 (100-400 µM for ultravariegin); 50 mM Tris pH 7.4, 100 mM NaCl, 1 mg/ml BSA, room temperature; tight-binding fit gives apparent Ki', Ki from Ki' for competitive inhibition; for UV011 Ki = IC50 (non-competitive inhibition assumed)
α-thrombin [3] = target: α-thrombin (UniProt P00734)

| Molecule | Tail bleeding (tail bleeding) | RT50 for bleeding (tail bleeding) | Sephaneous vein bleeding (saphenous vein bleeding) | bleeding time (ear vein bleeding) | Ki (thrombin; Ki (pM)) | also measured |
| --- | --- | --- | --- | --- | --- | --- |
| CC[C@H](C)[C@H](NC(=O)[C@H](C)NC(=O)[C@H](CCC(=O)O)NC(=O)[C@H](Cc1ccccc1)NC(=O)[C@H](CC(=O)O)NC(=O)[C@H](Cc1ccccc1)NC(=O)[C@@H]1CCCN1C(=O)[C@@H]1CCCN1C(=O)[C@H](C)NC(=O)[C@@H](NC(=O)[C@H](CCCCN)NC(=O)[C@H](Cc1cnc[nH]1)NC(=O)[C@H](CCSC)NC(=O)[C@H](CCCCN)NC(=O)[C@@H]1CCCN1C(=O)[C@H](CCC(=O)O)NC(=O)[C@H](C)NC(=O)[C@@H](NC(=O)[C@H](CC(=O)O)NC(=O)CNC(=O)[C@H](CCC(N)=O)NC(=O)[C@H](CC(=O)O)NC(=O)[C@@H](N)CO)C(C)C)[C@@H](C)O)C(=O)N1CCC[C@H]1C(=O)N[C@@H](CCC(=O)O)C(=O)N[C@@H](CCC(=O)O)C(=O)N[C@@H](Cc1ccc(O)cc1)C(=O)N[C@@H](CC(C)C)C(=O)N[C@@H](CC(=O)O)C(=O)N[C@@H](CC(=O)O)C(=O)N[C@@H](CCC(=O)O)C(=O)N[C@@H](CO)C(=O)O [Variegin] | 8 min | 5.3 mg/kg | 2.613 min | 7.7 ± 2.6 min |  | Bleeding, Response time (tail bleeding): 60 min; tail bleeding time (tail bleeding): ~ 30 min; bleeding time (ear vein bleeding; iv, 1 mg/kg): 10.3 min; average plasma concentration [1]: ~ 30 nM; half-life [1]: 52.3 ± 4.4 min; volume of distribution ([1]; pig): around 750 ml/kg |
| MYSTAPPGDFEEIPDDAIEE [UV011] |  |  |  |  | 1660 ± 759 pM |  |
| Ultravariegin (peptide) |  |  |  |  |  | Ki (α-thrombin [2]): 4 pM |
| SDEAVRAIPKMYSTAPPGDFEEIPDDAIEE [Ultravariegin] | 7.5 min | 2.0 mg/kg | 2.252 min | 6.2 ± 1.3 min | 4.02 pM | Ki (thrombin; Ki, y-intercept of line fitted to Ki′ = Ki (1 + S/Km)): 4.2 ± 0.3 pM |
| SGGHQTAVPKISKQGLGGDFEEIPSDEIIE [Avathrin, reference compound] |  |  |  |  | 624 ± 86 pM |  |
| SDEAVRAIPKMYSTAPPGDFETIPDDAIEEREMKAR [DAA34688.1 repeat 1] |  |  |  |  | 43.2 ± 8 pM |  |
| SDEAVRAIPKMYSTAPPGDFETIPDDAIEER [DAA34688.1 repeat 1B] |  |  |  |  | 20.5 ± 4.7 pM |  |
| CC[C@H](C)[C@H](NC(=O)[C@H](CCC(=O)O)NC(=O)[C@H](CCC(=O)O)NC(=O)[C@H](Cc1ccccc1)NC(=O)[C@H](CC(=O)O)NC(=O)CNC(=O)[C@H](CC(N)=O)NC(=O)CNC(=O)CNC(=O)CNC(=O)CNC(=O)[C@@H]1CCCN1C(=O)[C@H](CCCNC(=N)N)NC(=O)[C@@H]1CCCN1C(=O)[C@H](N)Cc1ccccc1)C(=O)N1CCC[C@H]1C(=O)N[C@@H](CCC(=O)O)C(=O)N[C@@H](CCC(=O)O)C(=O)N[C@@H](Cc1ccc(O)cc1)C(=O)N[C@@H](CC(C)C)C(=O)O [Bivalirudin, reference compound] | 20.5 min | 4.0 mg/kg/h | 4.131 min | 45 min |  | tail bleeding time (tail bleeding): maximal bleeding; half-life [1]: 25 min; plasma concentration [1]: around 2.7 µM |
| SDEAVRAIPKMYSTAPPGDFETIPDDAIEE [DAA34688.1 repeat 1C] |  |  |  |  | 6.5 ± 1.3 pM |  |
| Bivalirudin (peptide) |  |  |  |  |  | Ki (α-thrombin [3]): 1780 pM |
